Legend:
Type in all cases: in vivo
[1] = tested on: blackgrass (Alopecurus myosuroides); test: Test A1 preemergence, blackgrass
Method in brief: (§1)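 Seeds were first planted into a blend of loam soil and sand and given a preemergence directed soil spray. In parallel, pots of the same soil were sown for postemergence application once plants reached 2 to 10 cm and the one- to two-leaf stage. Both used surfactant-containing non-phytotoxic solvent formulations.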

[2] = tested on: corn (Zea mays); test: Test A1 preemergence, corn
Method in brief: as §1

[3] = tested on: Foxtail, Giant (giant foxtail, Setaria faberi); test: Test A1 preemergence, Foxtail, Giant
Method in brief: as §1

[4] = tested on: goosegrass (Eleusine indica); test: Test A1 preemergence, goosegrass
Method in brief: as §1

[5] = tested on: kochia (Bassia scoparia); test: Test A1 preemergence, kochia
Method in brief: as §1

[6] = tested on: Oat, Wild (wild oat, Avena fatua); test: Test A1 preemergence, Oat, Wild
Method in brief: as §1

[7] = tested on: Pigweed, Palmer (palmer amaranth, palmer pigweed, Amaranthus palmeri); test: Test A1 preemergence, Pigweed, Palmer
Method in brief: as §1

[8] = tested on: ragweed (common ragweed, Ambrosia artemisiifolia); test: Test A1 preemergence, ragweed
Method in brief: as §1

[9] = tested on: Ryegrass, Italian (Italian ryegrass, Lolium multiflorum); test: Test A1 preemergence, Ryegrass, Italian
Method in brief: as §1

[10] = tested on: soybean (Glycine max); test: Test A1 preemergence, soybean
Method in brief: as §1

[11] = tested on: wheat (Triticum aestivum); test: Test A1 preemergence, wheat
Method in brief: as §1

[12] = tested on: blackgrass (Alopecurus myosuroides); test: Test A1 postemergence, blackgrass; settings: Postemergence, 0 to 100 scale (0 no effect, 100 complete control)
Method in brief: (§2)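 Plants were grown in a loam soil/sand blend, with test chemicals formulated in a non-phytotoxic solvent mixture containing surfactant. Preemergence treatment (corn) was a directed soil spray at planting. Postemergence treatment was applied to plants 2 to 10 cm tall at the one- to two-leaf stage.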

[13] = tested on: corn (Zea mays); test: Test A1 postemergence, corn; settings: Postemergence
Method in brief: as §1

[14] = tested on: Foxtail, Giant (giant foxtail, Setaria faberi); test: Test A1 postemergence, Foxtail, Giant; settings: Postemergence
Method in brief: as §2

[15] = tested on: goosegrass (Eleusine indica); test: Test A1 postemergence, goosegrass; settings: Postemergence
Method in brief: as §2

[16] = tested on: kochia (Bassia scoparia); test: Test A1 postemergence, kochia; settings: Postemergence
Method in brief: as §2

[17] = tested on: Oat, Wild (wild oat, Avena fatua); test: Test A1 postemergence, Oat, Wild; settings: Postemergence
Method in brief: as §1

[18] = tested on: Pigweed, Palmer (palmer amaranth, palmer pigweed, Amaranthus palmeri); test: Test A1 postemergence, Pigweed, Palmer; settings: Postemergence
Method in brief: as §1

[19] = tested on: ragweed (common ragweed, Ambrosia artemisiifolia); test: Test A1 postemergence, ragweed; settings: Postemergence
Method in brief: as §1

[20] = tested on: Ryegrass, Italian (Italian ryegrass, Lolium multiflorum); test: Test A1 postemergence, Ryegrass, Italian; settings: Postemergence
Method in brief: as §2

[21] = tested on: soybean (Glycine max); test: Test A1 postemergence, soybean; settings: Postemergence
Method in brief: as §2

[22] = tested on: wheat (Triticum aestivum); test: Test A1 postemergence, wheat; settings: Postemergence
Method in brief: as §2

[23] = tested on: galium (catchweed bedstraw, Galium aparine); test: Test A1 postemergence, galium; settings: Postemergence
Method in brief: as §2

[24] = tested on: horseweed (Erigeron canadensis); test: Test A1 postemergence, horseweed; settings: Postemergence
Excerpt: Seeds of plant species selected from, blackgrass (Alopecurus myosuroides), corn (Zea mays), Foxtail, Giant (giant foxtail, Setaria faberi), goosegrass (Eleusine indica), kochia (Bassia scoparia), Oat, Wild (wild oat, Avena fatua), Pigweed, Palmer (palmer amaranth, palmer pigweed, Amaranthus palmeri), ragweed (common ragweed, Ambrosia artemisiifolia), Ryegrass, Italian (Italian ryegrass, Lolium multiflorum), soybean (Glycine max), and wheat (Triticum aestivum) were planted into a blend of loam soil and sand and treated preemergence with a directed soil spray using test chemicals formulated in a non-phytotoxic solvent mixture which included a surfactant. At the same time, plants selected from these crop and weed species and also galium (catchweed bedstraw, Galium aparine) and horseweed (Erigeron canadensis) were planted in pots containing the same blend of loam soil and sand and treated with postemergence applications of test chemicals formulated in the same manner. Plants ranged in height from 2 to 10 cm and were in the one- to two-leaf stage for the postemergence treatment. […] A dash (-) response means no test result.

[25] = tested on: barnyardgrass (Echinochloa crus-galli); test: Test B1 flooded paddy test, barnyardgrass; settings: 250 g ai/ha, Flood, applied to paddy water, 2-leaf stage, visually evaluated after 10 to 14 days
Excerpt: (§3) A dash (-) response means no test result.

[26] = tested on: ducksalad (Heteranthera limosa); test: Test B1 flooded paddy test, ducksalad; settings: 250 g ai/ha, Flood, applied to paddy water, 2-leaf stage, visually evaluated after 10 to 14 days
Excerpt: as §3

[27] = tested on: rice (Oryza sativa); test: Test B1 flooded paddy test, rice; settings: 250 g ai/ha, Flood, applied to paddy water, 2-leaf stage, visually evaluated after 10 to 14 days
Excerpt: as §3

[28] = 31 g ai/ha, 0 to 100 scale (0 no effect, 100 complete control)
[29] = 125 g ai/ha, 0 to 100 scale, 0 no effect, 100 complete control
[30] = 31 g ai/ha, 0 to 100 scale (0 no effect, 100 complete control), 10 days

Cc1cc(C)c(C2=NOC3OCCC23)cc1NS(=O)(=O)C(F)(F)F (stereo not drawn) [Compound 349]
Plant response rating, Blackgrass [1, 28]: 50 | Plant response rating, Blackgrass [1, 29]: 80 | Plant response rating, Corn [2, 28]: 20 | Plant response rating, Corn [2, 29]: 100 | Plant response rating, Foxtail, Giant [3, 28]: 90 | Plant response rating, Foxtail, Giant [3, 29]: 100 | Plant response rating, Goosegrass [4, 28]: 90 | Plant response rating, Goosegrass [4, 29]: 100 | Plant response rating, Kochia [5, 28]: 80 | Plant response rating, Kochia [5, 29]: 100 | Plant response rating, Oat, Wild [6, 28]: 10 | Plant response rating, Oat, Wild [6, 29]: 50 | Plant response rating, Pigweed, Palmer [7, 28]: 100 | Plant response rating, Pigweed, Palmer [7, 29]: 100 | Plant response rating, Ragweed [8, 28]: 30 | Plant response rating, Ragweed [8, 29]: 90 | Plant response rating, Ryegrass, Italian [9, 28]: 70 | Plant response rating, Ryegrass, Italian [9, 29]: 80 | Plant response rating, Soybean [10, 28]: 20 | Plant response rating, Soybean [10, 29]: 60 | Plant response rating, Wheat [11, 28]: 20 | Plant response rating, Wheat [11, 29]: 70 | Plant response rating, Blackgrass ([12]; 31 g ai/ha, 10 days): 40 | Plant response rating, Blackgrass ([12]; 125 g ai/ha): 70 | Plant response rating, Corn [13, 30]: 40 | Plant response rating, Corn ([13]; 125 g ai/ha, 0 to 100 scale): 90 | Plant response rating, Foxtail, Giant [14, 30]: 30 | Plant response rating, Foxtail, Giant ([14]; 125 g ai/ha, 0 to 100 scale): 90 | Plant response rating, Goosegrass [15, 30]: 90 | Plant response rating, Goosegrass ([15]; 125 g ai/ha, 0 to 100 scale): 90 | Plant response rating, Kochia [16, 30]: 70 | Plant response rating, Kochia ([16]; 125 g ai/ha, 0 to 100 scale): 80 | Plant response rating, Oat, Wild [17, 30]: 0 | Plant response rating, Oat, Wild ([17]; 125 g ai/ha, 0 to 100 scale): 30 | Plant response rating, Pigweed, Palmer [18, 30]: 20 | Plant response rating, Pigweed, Palmer ([18]; 125 g ai/ha, 0 to 100 scale): 70 | Plant response rating, Ragweed [19, 30]: 70 | Plant response rating, Ragweed ([19]; 125 g ai/ha, 0 to 100 scale): 90 | Plant response rating, Ryegrass, Italian [20, 30]: 60 | Plant response rating, Ryegrass, Italian ([20]; 125 g ai/ha, 0 to 100 scale): 90 | Plant response rating, Soybean [21, 30]: 30 | Plant response rating, Soybean ([21]; 125 g ai/ha, 0 to 100 scale): 70 | Plant response rating, Wheat [22, 30]: 30 | Plant response rating, Wheat ([22]; 125 g ai/ha, 0 to 100 scale): 70 | Plant response rating, Galium [23, 30]: 100 | Plant response rating, Galium ([23]; 125 g ai/ha, 0 to 100 scale): 100 | Plant response rating, Horseweed [24, 30]: 90 | Plant response rating, Horseweed ([24]; 125 g ai/ha, 0 to 100 scale): 100 | Plant response rating, Barnyardgrass (0 to 100 scale, 0 is no effect, 100 is complete control) [25]: 90 | Plant response rating, Ducksalad (0 to 100 scale, 0 is no effect, 100 is complete control) [26]: 80 | Plant response rating, Rice (0 to 100 scale, 0 is no effect, 100 is complete control) [27]: 45

CCOC1CC(c2cc(N(COC(=O)C(C)(C)C)S(=O)(=O)C(F)(F)F)c(C)cc2C)=NO1 (stereo not drawn) [Compound 339]
Plant response rating, Blackgrass [1, 28]: 0 | Plant response rating, Blackgrass [1, 29]: 0 | Plant response rating, Corn [2, 28]: 0 | Plant response rating, Corn [2, 29]: 0 | Plant response rating, Foxtail, Giant [3, 28]: 0 | Plant response rating, Foxtail, Giant [3, 29]: 20 | Plant response rating, Goosegrass [4, 28]: 0 | Plant response rating, Goosegrass [4, 29]: 90 | Plant response rating, Kochia [5, 28]: 0 | Plant response rating, Kochia [5, 29]: 90 | Plant response rating, Oat, Wild [6, 28]: 0 | Plant response rating, Oat, Wild [6, 29]: 0 | Plant response rating, Pigweed, Palmer [7, 28]: 30 | Plant response rating, Pigweed, Palmer [7, 29]: 100 | Plant response rating, Ragweed [8, 28]: 20 | Plant response rating, Ragweed [8, 29]: 50 | Plant response rating, Ryegrass, Italian [9, 28]: 30 | Plant response rating, Ryegrass, Italian [9, 29]: 50 | Plant response rating, Soybean [10, 28]: 0 | Plant response rating, Soybean [10, 29]: 0 | Plant response rating, Wheat [11, 28]: 0 | Plant response rating, Wheat [11, 29]: 0 | Plant response rating, Blackgrass ([12]; 31 g ai/ha, 10 days): 0 | Plant response rating, Blackgrass ([12]; 125 g ai/ha): 30 | Plant response rating, Corn [13, 30]: 0 | Plant response rating, Corn ([13]; 125 g ai/ha, 0 to 100 scale): 30 | Plant response rating, Foxtail, Giant [14, 30]: 0 | Plant response rating, Foxtail, Giant ([14]; 125 g ai/ha, 0 to 100 scale): 50 | Plant response rating, Goosegrass [15, 30]: 0 | Plant response rating, Goosegrass ([15]; 125 g ai/ha, 0 to 100 scale): 30 | Plant response rating, Kochia [16, 30]: 30 | Plant response rating, Kochia ([16]; 125 g ai/ha, 0 to 100 scale): 70 | Plant response rating, Oat, Wild [17, 30]: 0 | Plant response rating, Oat, Wild ([17]; 125 g ai/ha, 0 to 100 scale): 0 | Plant response rating, Pigweed, Palmer [18, 30]: 0 | Plant response rating, Pigweed, Palmer ([18]; 125 g ai/ha, 0 to 100 scale): 20 | Plant response rating, Ragweed [19, 30]: 40 | Plant response rating, Ragweed ([19]; 125 g ai/ha, 0 to 100 scale): 70 | Plant response rating, Ryegrass, Italian [20, 30]: 0 | Plant response rating, Ryegrass, Italian ([20]; 125 g ai/ha, 0 to 100 scale): 50 | Plant response rating, Soybean [21, 30]: 0 | Plant response rating, Soybean ([21]; 125 g ai/ha, 0 to 100 scale): 10 | Plant response rating, Wheat [22, 30]: 0 | Plant response rating, Wheat ([22]; 125 g ai/ha, 0 to 100 scale): 40 | Plant response rating, Galium [23, 30]: 30 | Plant response rating, Galium ([23]; 125 g ai/ha, 0 to 100 scale): 50 | Plant response rating, Horseweed [24, 30]: 100 | Plant response rating, Horseweed ([24]; 125 g ai/ha, 0 to 100 scale): 100 | Plant response rating, Barnyardgrass (0 to 100 scale, 0 is no effect, 100 is complete control) [25]: 95 | Plant response rating, Ducksalad (0 to 100 scale, 0 is no effect, 100 is complete control) [26]: 65 | Plant response rating, Rice (0 to 100 scale, 0 is no effect, 100 is complete control) [27]: 20

— patent US20230278972A1, “SUBSTITUTED HALOALKYL SULFONANILIDE HERBICIDES” (FMC Corporation, priority 2020, published 2023)
